One data set deals with JIMT-1 cells. As to the kind of experiment: Cell viability assay (BrdU incorporation), JIMT-1. The format is cell-based. Conditions: conjugated to Trastuzumab D265C. As for the experimental part: (§1) Cytotoxic activity of anti PSMA and anti-Her2 amatoxin conjugates was evaluated in vitro with target-positive tumor cell lines and the chemiluminescent BrdU incorporation assay (Roche Diagnostics). Cell viability was determined after 96 h incubation with different concentrations of conjugates at 37° C. and 5% CO2 by measurement of fixed and permeabilized cells with an anti-BrdU-HRP antibody in a BMG Labtech Optima microplate reader. EC50 value of dose-response curve was calculated by Graphpad Prism 4.0 software.
JIMT-1 is a solid cancer cell line derived from a breast ductal adenocarcinoma.

The next data set has as its system LNCaP cells. As to the kind of experiment: Cell viability assay (BrdU incorporation), LNCaP. The format is cell-based. The following applies: conjugated to anti-PSMA antibody h3/F11 D265C. The procedure:
as §1
LNCaP is a solid prostate adenocarcinoma cell line derived from a left supraclavicular lymph node metastasis.
(Uptake of a labelled nucleoside into DNA is a usual measure of proliferation.)

The next data set deals with Raji cells. As to the kind of experiment: CellTiter-Glo 2.0 cell viability assay, Raji. The format is cell-based, human. The following applies: conjugated to antiCD19 antibody chiBCE19 D265C. As for the experimental part: Cytotoxic activity of anti CD19 amatoxin conjugates on target positive cells was assessed by CellTiter-Glo 2.0 Luminescent Cell Viability Assay (Promega, Madison, WI) in 96-well tissue culture plates. Cell viability was determined after 96 h incubation with different concentrations of conjugates at 37° C. and 5% CO2. Data analysis was performed with GraphPad Prism 7 (GraphPad Software, Inc, La Jolla, CA) software to plot curve fits and perform statistical analyses. Nonlinear variable slope curve-fits were plotted as log[ADC] vs. Response and EC50 values were generated.
Raji is a cell line derived from Burkitt's lymphoma.
Background: In ATP-based viability assays light output follows the ATP content of the culture.

For data set [1], the system named is Jimt-1 breast cancer cells (s.c. xenograft). As to the kind of experiment: Jimt-1 xenograft model, tumor volume. The format is in vivo, NMRI nude mice. Conditions: conjugated to Trastuzumab D265C; JIMT xenografts; single intravenous dose. The procedure: Jimt-1 xenograft model: Female NMRI nude mice were inoculated with 5×10^6 Jimt-1 breast cancer cells per mouse subcutaneously in the right flank. At a mean tumor vol. of ˜120 mm^3, animals were allocated to groups on day 0. On the same day the animals received a single intravenous dose of amanitin based anti-Her2 antibody drug conjugates (ADCs) Tumor volume and body weight were determined twice per week.
(§2) Tumor growth was monitored by caliper measurement. Tumor size was calculated according to the equation: volume=W^2×L×0.5 (L=length and W=perpendicular width of the tumor, L>W).

For data set [2], the system named is LNCap prostate carcinoma cells (s.c. xenograft). As to the kind of experiment: LnCap xenograft model, tumor volume. The data set is classed as in vivo, CB17 SCID mice. Conditions: conjugated to anti-PSMA antibody h3/F11 D265C; LnCap xenografts; single intravenous dose. The procedure:
LnCap xenograft model: Male CB17 SCID mice were inoculated with 2.5×10^6 LNCap prostate carcinoma cells per mouse subcutaneously in the right flank. At a mean tumor vol. of ˜150 mm^3, animals were allocated to groups on day 0. On the same day the animals received a single intravenous dose of amanitin based anti-PSMA antibody drug conjugates (ADCs) Tumor volume and body weight were determined twice per week.
as §2

Data set [3] relates to Raji Burkitt's lymphoma cells (s.c. xenograft). As to the kind of experiment: Raji s.c. xenograft model (solid tumor), tumor volume. The format is in vivo, CB17 SCID mice. Conditions: for Efficacy Raji sc: anti-CD19 conjugate, grade, key not given; for tumor shrinking activity (FIG. 7): conjugated to chiBCE19 D265C, Raji cells injected s.c., single intravenous dose. The procedure: Raji xenograft model: Female CB17 SCID mice were inoculated with 2.5×10^6 Raji Burkitt's lymphoma cells per mouse subcutaneously in the right flank. At a mean tumor vol. of ˜80 mm^3, animals were allocated to groups on day 0. On the same day the animals received a single intravenous dose of amanitin based anti-CD19 antibody drug conjugates (ADCs) Tumor volume and body weight were determined twice per week.
as §2
Growth inhibition experiments were then carried out with tumor xenografts of Raji cells injected into mice s.c. This approach leads to tumors that mimic the phenotype of a solid tumor.

The test system of data set [4] is Raji Luc cells (i.v. xenograft). Description: Intravenous Raji-Luc xenograft (liquid tumor), survival. The format is in vivo, CB17 SCID mice. The following applies: conjugated to chiBCE19 D265C; i.v. injected Raji Luc cells; single i.v. dose. As for the experimental part:
(§3) […]: Female CB17 SCID mice were inoculated with 2.5×10^6 Raji Burkitt's lymphoma cells per mouse into the tail vein. Animals were allocated to groups on day 0. On day 3 after tumor cell injection, the animals received a single intravenous dose of amanitin based anti-CD19 antibody drug conjugates (ADCs). Body weight was determined twice per week. Survival was monitored daily.
(§4) […]: Female CB17 SCID mice were inoculated with 5×10^6 Nalm-6 B Cell precursor leukemia cells per mouse into the tail vein. Animals were allocated to groups on day 0. On day 3 after tumor cell injection, the animals received a single intravenous dose of amanitin based anti-CD19 antibody drug conjugates (ADCs). Body weight was determined twice per week. Survival was monitored daily.
(§5) Survival rates were then investigated with tumor xenografts of Raji cells (with or without transfected luciferase) or Nalm-6 cells obtained by i.v. administration of the respective cells.
(§6) Raji is a cell line derived from Burkitt's lymphoma, Nalm-6 is a cell line derived from acute lymphoblastic leukemia (ALL). Results are shown in the Kaplan Meier curves of FIG. 6.
(§7) Survival experiments were carried out with i.v. injected Raji Luc (FIG. 6A) or NALM6 (FIG. 6B) cells.

Data set [5] has as its system Nalm-6 cells (i.v. xenograft). As to the kind of experiment: Intravenous Nalm-6 xenograft model (liquid tumor), survival. The format is in vivo, CB17 SCID mice. Conditions: conjugated to chiBCE19 D265C; i.v. injected NALM6 cells; single i.v. dose. As for the experimental part:
as §3, §4, §5, §6, §7

A short description of data set [6]: Highest non-severely toxic dose, DIG (Digoxigenin antibody) conjugates, Cyno. The following applies: Digoxigenin antibody conjugate (no cross reaction with host targets); Cynomolgus monkey.
The next data set addresses RNA polymerase III (Homo sapiens, UniProt O14802+Q9NW08). Conditions: cited from earlier work.
The target of a further data set is RNA polymerase I (Homo sapiens, UniProt O95602+Q9H9Y6). Conditions: cited from earlier work.

The text below walks through data of US12544419B2, “Targeted amatoxin conjugate for the treatment of solid tumors” (Heidelberg Pharma Research GmbH, priority 2018, dated 2026).

With `CC[C@H](C)[C@@H]1NC(=O)CNC(=O)[C@@H]2Cc3c([nH]c4cc(OCc5ccc(NC(=O)[C@H](C)NC(=O)[C@@H](NC(=O)CCN6C(=O)C=CC6=O)C(C)C)cc5)ccc34)[S@+]([O-])CC(NC(=O)CNC1=O)C(=O)N[C@@H](CC(N)=O)C(=O)CN1CC(O)C[C@H]1C(=O)N[C@@H]([C@@H](C)[C@@H](O)CO)C(=O)N2` (stereo partly shown) [30.1699], the “potency in cell viability assay (FIG. 1)” value with JIMT-1 cells was “comparable potency”. The “potency in cell viability assay (FIG. 3)” value in the data set with LNCaP cells is “comparable potency”. Further, the “potency in cell viability assay (FIG. 5)” value in the data set with Raji cells was “comparable potency”. Besides, the “tumor shrinking activity (FIG. 2)” value in data set [1] is reported as “strong tumor shrinking activity”. For the same molecule, the “tumor shrinking activity (FIG. 4)” value in data set [2] is on record as “strong tumor shrinking activity”. Also, in [3], the “Efficacy Raji sc” value is “∘” and the “tumor shrinking activity (FIG. 7)” value is reported as “strong tumor shrinking activity”. The “potency in survival experiment (FIG. 6A)” value in data set [4] is “lower potency than the Trp variant 30.2115”. For the same molecule, the “potency in survival experiment (FIG. 6B)” value in [5] is on record as “lower potency than the Trp variant 30.2115”. Moreover, the “HNSTD DIG Cyno” value in data set [6] is reported as more than 3 mg/kg.
With `CC[C@H](C)[C@@H]1NC(=O)CNC(=O)[C@@H]2Cc3c([nH]c4cc(O)ccc34)[S@+]([O-])CC(NC(=O)CNC1=O)C(=O)N[C@@H](CC(=O)NCc1ccc(NC(=O)[C@H](C)NC(=O)C(NC(=O)CCN3C(=O)C=CC3=O)C(C)C)cc1)C(=O)CN1CC(O)C[C@H]1C(=O)N[C@@H]([C@@H](C)[C@@H](O)CO)C(=O)N2` (stereo partly shown) [30.2060], the “potency in cell viability assay (FIG. 1)” value in the data set on JIMT-1 cells is on record as “comparable potency”. Further, the “potency in cell viability assay (FIG. 3)” value in the data set with LNCaP cells is on record as “comparable potency”. Also, the “potency in cell viability assay (FIG. 5)” value in the data set with Raji cells was “comparable potency”. The “tumor shrinking activity (FIG. 2)” value in [1] is listed as “strong tumor shrinking activity”. The “tumor shrinking activity (FIG. 4)” value in data set [2] was “strong tumor shrinking activity”. For the same molecule, in [3], the “Efficacy Raji sc” value is recorded as “∘” and the “tumor shrinking activity (FIG. 7)” value was “strong tumor shrinking activity”. Further, the “HNSTD DIG Cyno” value in [6] is less than 7.5 mg/kg.
On to `CC[C@H](C)[C@@H]1NC(=O)CNC(=O)[C@@H]2Cc3c([nH]c4ccccc34)SCC(NC(=O)CNC1=O)C(=O)N[C@@H](CC(=O)NCc1ccc(NC(=O)[C@H](C)NC(=O)C(NC(=O)CCN3C(=O)C=CC3=O)C(C)C)cc1)C(=O)CN1CC(O)C[C@H]1C(=O)N[C@@H]([C@@H](C)[C@@H](O)CO)C(=O)N2` (stereo partly shown) [30.2115, reference compound], for which the “potency in cell viability assay (FIG. 1)” value in the data set on JIMT-1 cells is “slightly decreased potency”. Also, the “potency in cell viability assay (FIG. 3)” value in the data set on LNCaP cells is on record as “strongly decreased potency”. For the same molecule, in the data set on Raji cells, the “potency in cell viability assay (FIG. 5)” value is recorded as “comparable potency”. Also, the “tumor shrinking activity (FIG. 2)” value in data set [1] is “significantly decreased tumor shrinking activity”. Further, the “tumor shrinking activity (FIG. 4)” value in data set [2] was “significantly decreased tumor shrinking activity”. Moreover, the “tumor shrinking activity (FIG. 7)” value in [3] is given as “significantly decreased tumor shrinking activity”. Also, the “HNSTD DIG Cyno” value in data set [6] is on record as less than 7.5 mg/kg.
In the case of `CC[C@H](C)[C@@H]1NC(=O)CNC(=O)[C@@H]2Cc3c([nH]c4ccccc34)[S+]([O-])CC(NC(=O)CNC1=O)C(=O)N[C@@H](CC(=O)NCc1ccc(NC(=O)[C@H](C)NC(=O)[C@@H](NC(=O)CCN3C(=O)C=CC3=O)C(C)C)cc1)C(=O)CN1CC(O)C[C@H]1C(=O)N[C@@H]([C@@H](C)[C@@H](O)CO)C(=O)N2` (stereo partly shown) [30.2183, reference compound], the “potency in cell viability assay (FIG. 1)” value in the data set on JIMT-1 cells is given as “strongly decreased potency”. Further, the “potency in cell viability assay (FIG. 3)” value in the data set with LNCaP cells is given as “strongly decreased potency”. In addition, the “potency in cell viability assay (FIG. 5)” value in the data set with Raji cells is given as “comparable potency”. The “tumor shrinking activity (FIG. 2)” value in data set [1] is listed as “significantly decreased tumor shrinking activity”. Also, the “tumor shrinking activity (FIG. 4)” value in data set [2] was “significantly decreased tumor shrinking activity”. Moreover, in data set [3], the “tumor shrinking activity (FIG. 7)” value is recorded as “significantly decreased tumor shrinking activity”.
As for `CC[C@H](C)[C@@H]1NC(=O)CNC(=O)[C@@H]2Cc3c([nH]c4cc(O)ccc34)SCC(NC(=O)CNC1=O)C(=O)N[C@@H](CC(=O)NCc1ccc(NC(=O)[C@H](C)NC(=O)C(NC(=O)CCN3C(=O)C=CC3=O)C(C)C)cc1)C(=O)CN1CC(O)C[C@H]1C(=O)N[C@@H]([C@@H](C)[C@@H](O)CO)C(=O)N2` (stereo partly shown) [30.2347], the “potency in cell viability assay (FIG. 1)” value with JIMT-1 cells was “comparable potency”. Also, the “potency in cell viability assay (FIG. 3)” value with LNCaP cells is reported as “comparable potency”. Moreover, the “potency in cell viability assay (FIG. 5)” value with Raji cells was “comparable potency”. Further, the “tumor shrinking activity (FIG. 2)” value in data set [1] is “strong tumor shrinking activity”. The “tumor shrinking activity (FIG. 4)” value in data set [2] is on record as “strong tumor shrinking activity”. Also, in data set [3], the “Efficacy Raji sc” value was “∘” and the “tumor shrinking activity (FIG. 7)” value was “strong tumor shrinking activity”. Besides, in data set [6], the “HNSTD DIG Cyno” value is recorded as less than 5 mg/kg.
`CC[C@H](C)[C@@H]1NC(=O)CNC(=O)[C@@H]2Cc3c([nH]c4cc(OCc5ccc(NC(=O)[C@H](C)NC(=O)[C@@H](NC(=O)CCN6C(=O)C=CC6=O)C(C)C)cc5)ccc34)SCC(NC(=O)CNC1=O)C(=O)N[C@@H](CC(N)=O)C(=O)CN1CC(O)C[C@H]1C(=O)N[C@@H]([C@@H](C)[C@@H](O)CO)C(=O)N2` (stereo partly shown) [30.2371]: in the data set with JIMT-1 cells, the “potency in cell viability assay (FIG. 1)” value is listed as “comparable potency”. Further, in the data set on LNCaP cells, the “potency in cell viability assay (FIG. 3)” value is on record as “comparable potency”. Also, the “potency in cell viability assay (FIG. 5)” value with Raji cells is reported as “comparable potency”. In data set [1], the “tumor shrinking activity (FIG. 2)” value is “strong tumor shrinking activity”. Also, the “tumor shrinking activity (FIG. 4)” value in data set [2] is “strong tumor shrinking activity”. Moreover, in data set [3], the “Efficacy Raji sc” value is on record as “∘” and the “tumor shrinking activity (FIG. 7)” value is listed as “strong tumor shrinking activity”. Besides, the “HNSTD DIG Cyno” value in data set [6] is on record as more than 2 mg/kg.
Regarding α-amanitin [Alpha-amanitin], on RNA polymerase III, the “binding to RNA polymerase III” value was “only slightly binds”. In addition, the “binding to RNA polymerase I” value on RNA polymerase I is reported as “no binding”.
